Laboratory results: patent US12571019B2, “Nisin-permeabilized microbial cell catalysts” (DANMARKS TEKNISKE UNIVERSITET, priority 2020, dated 2026)

How the values were obtained:
[1] = tested on: S. thermophilus CS1980; assay: Lactose hydrolysis in POM buffer by permeabilized S. thermophilus CS1980 whole-cell catalyst; format: cell-based, Streptococcus thermophilus; settings: for stability of the whole-cell catalyst: permeabilized 10 minutes at 28° C. (45% (v/v) ethanol or 2.5 μg/ml nisin), hydrolysis 50° C.
Protocol: S. thermophilus CS1980 was grown in 500-ml Erlenmeyer flasks containing 200 ml of medium at 37° C. for 16 h without agitation. As inoculum, 2 ml of a 24 hour, outgrown culture was used. Cells were collected by centrifugation at 10,000 g for 10 min at 4° C., washed once with sterile POM buffer (50 mM K2HPO4/KH2PO4, 1 mM MgCl2, pH 7.4) and finally re-suspended in POM buffer to an optical density (600 nm) of 0.33, corresponding to approximately 100 mg/l dry cell weight. The cell suspension was kept on ice until use. For permeabilization, cell suspensions were dispensed into sterile tubes (1 ml per tube) and centrifuged in a microcentrifuge at top speed for 5 min at 4° C.
Samples were withdrawn at different time points, and conversion of lactose (formation of glucose and galactose) was determined by HPLC analysis.
The concentrations of sugars (carbohydrate monomers and dimers) were determined using an Ultimate 3000 high-pressure liquid chromatography system (Dionex, Sunnyvale, CA) equipped with an Aminex HPX-87H column (Bio-Rad, Hercules, CA) and a Shodex RI-101 detector (Showa Denko KK, Tokyo, Japan). The column oven temperature was set to 30° C., and the mobile phase consisted of 5 mM H2SO4 with a flowrate of 0.5 ml/min.
Hydrolysis took place at 50° C.
Hydrolysis of lactose in POM buffer (50 g/l lactose) at 50° C. was carried out at a cell concentration of approximately 100 mg/l.
Hydrolysis of lactose (50 g/1) was carried out in POM buffer at 50° C.

[2] = tested on: S. thermophilus; settings: Somkuti et al., 1998; cited from earlier work
[3] = tested on: S. thermophilus strains from starter culture ST057; assay: Lactose hydrolysis in POM buffer by nisin-permeabilized S. thermophilus strains from starter culture ST057; format: cell-based, Streptococcus thermophilus
Protocol: Streptococcus thermophilus (S. thermophilus) strain CS1980 was isolated from a Danish yoghurt (same as used in example 1). Additional S. thermophilus strains were isolated from starter cultures kindly provided by Sacco Srl. Italy (ST057, ST022).
Hydrolysis was performed at 50° C.

[4] = tested on: S. thermophilus ST057-1; assay: Hydrolysis of lactose in milk by nisin-permeabilized S. thermophilus ST057-1; format: cell-based, Streptococcus thermophilus
Protocol: Nisin-treated S. thermophilus ST057-1 was applied in hydrolysis of lactose in milk, at cell concentration of approximately 100 mg/l or 1 g/l. […] The starting concentration of lactose in the milk used was 52 g/l. Hydrolysis took place at 50° C.
Hydrolysis of lactose in milk (52 g/l lactose) using nisin-treated cells was carried out at a cell concentration of approximately 1 g/l. Hydrolysis took place at 50° C.

[5] = tested on: L. lactis strain MG1363 ΔldhB ΔldhX Δpta ΔadhE ΔbutBA ΔaldB (RD04); assay: Alpha-acetolactate synthase activity of nisin-permeabilized L. lactis RD04 (pyruvate to alpha-acetolactate, HPLC); format: cell-based, Lactococcus lactis; settings: 100 μg/ml nisin, 15 min 37° C.; 200 mM sodium pyruvate
Protocol: A modified L. lactis strain MG1363 lacking alpha-acetolactate decarboxylase activities was used in the present experiment. More specifically, the strain RD04 was L. lactis strain MG1363 ΔldhB ΔldhX Δpta ΔadhE ΔbutBA ΔaldB, while harboring an expression vector for overexpressing native alpha-acetolactate synthase (Als).
Alpha-acetolactate synthase activity was determined by investigating the conversion rate of pyruvate to alpha-acetolactate, using HPLC measurements of alpha-acetolactate formation.

| Compound | stability of the whole-cell catalyst [1] | permeabilizing agent effect on measurable beta-galactosidase activity [2] | lactose hydrolyzed ([1]; 2.5 μg/ml nisin 10 min, 100 mg/l cells, 50 g/l lactose in POM buffer, hydrolysis at 50° C., within 24 hours) [%] | lactose conversion compared to control and ethanol-permeabilized cells ([1]; 2.5 μg/ml nisin, 10 minutes 28° C., 50 g/l lactose POM buffer, 50° C., 100 mg/l cells) | effect of prolonged nisin treatment ([1]; 30 minutes vs 10 minutes permeabilization) | efficiency of permeabilization at different permeabilization temperatures ([1]; permeabilization at 28° C. and 37° C., 2.5 μg/ml nisin 10 min) | cell stability after permeabilization ([1]; permeabilization at 55° C., 2.5 μg/ml nisin) | efficiency of permeabilization at different permeabilization temperatures ([1]; permeabilization temperatures 28-50° C., 2.5 μg/ml nisin) | time to reach 80% hydrolysis ([3]; POM buffer, 100 mg/l whole-cell catalyst, 50° C.) [h] | conversion of the lactose ([3]; two strains from starter culture ST057, 2.5 μg/ml nisin 10 min 28° C., hydrolysis 50° C., in less than half of the time of the other strains) [%] | time to reach 80% hydrolysis ([4]; milk (52 g/l lactose), 100 mg/l whole-cell catalyst, 50° C.) | conversion rate on increasing the whole-cell catalyst concentration ([4]; milk, 1 g/l vs 100 mg/l cells, 50° C.) | lactose conversion in milk at different permeabilization temperature ([4]; permeabilization 28° C. vs 37° C., 1 g/l cells, hydrolysis 50° C.) | conversion of pyruvate to alpha-acetolactate compared to non-permeabilized cells [5] |
| --- | --- | --- | --- | --- | --- | --- | --- | --- | --- | --- | --- | --- | --- | --- |
| CCO [ethanol] | compromised the stability of the whole-cell catalyst | efficient as a permeabilizing agent | – | – | – | – | – | – | – | – | – | – | – | – |
| nisin A | higher stability | – | 95 | perform better than the control as well as the ethanol-permeabilized cells | does not give better results | equally efficient | seemed to be compromised | equally efficient | ≤ 4 | > 90 | more than 12 hours | significantly increased | performed equally well | performed much better than non-permeabilized cells |
